Results on 1 compound are retold here after US6303619A, “Meta-substituted acidic 8-phenylxanthine antagonists of A3 human adenosine receptors” (priority 1998, dated 2001).

The test deals with T1, human A2B adenosine receptor (Homo sapiens, UniProt P29275).
T1 construct: expressed in transfected cells; host or cells: COS7 cells
T1 sequence (P29275 1-332): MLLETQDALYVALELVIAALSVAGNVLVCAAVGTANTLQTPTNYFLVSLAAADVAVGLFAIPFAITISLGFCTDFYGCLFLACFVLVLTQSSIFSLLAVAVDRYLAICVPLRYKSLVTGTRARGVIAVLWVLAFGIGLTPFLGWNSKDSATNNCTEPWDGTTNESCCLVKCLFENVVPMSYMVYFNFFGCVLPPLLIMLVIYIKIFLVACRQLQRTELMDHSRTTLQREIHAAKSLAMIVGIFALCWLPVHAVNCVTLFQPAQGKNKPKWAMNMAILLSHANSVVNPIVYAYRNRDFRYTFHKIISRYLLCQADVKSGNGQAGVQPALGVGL
As to the kind of experiment: competition binding, recombinant human A2B adenosine receptor. To be noted: A3 versus A2B. The method, then: Monolayer cell culture of transfected COS7 cells were dissociated with 1 mM EDTA in phosphate buffered saline and resuspended in 5 mM Tris, pH7.6/10 mM MgCl2. The cells were subjected to freeze-thaw lysis and the suspension was homogenized in a glass dounce homogenizer. The membranes were pelleted, resuspended in binding buffer, 50 mM Tris pH 7.6/10 mM MgCl2 and incubated with adenosine deaminase before the binding assay. The binding assay was performed by incubating 50-100 Fg of membranes with increasing concentrations of radiolabeled adenosine agonists. Bound ligand was separated from free ligand by filtration on a SKATRON CELL […] equipped with a receptor binding filtermat. Bound radioactivity was measured by scintillation counting. Substances which bind to or enhance binding to expressed human adenosine receptors in COS and CHO cells can be identified in competition binding assays with radiolabeled adenosine or xanthine analogs. […] Membranes were prepared from transiently transfected COS7 cells 48 h after transfection or from G418-selected stably transfected CHO or HEK 293 cells. […] Protein concentration was determined by tie method of Bradford ((1976) Anal. Biochem. 72: 248-250). […] Bound radioactivity was measured by scintillation counting. Non-specific binding was measured on membranes prepared from non-transfected COS7 cells.

As for `CCCn1c(=O)c2[nH]c(-c3cccc(C=CC(=O)O)c3)nc2n(CCC)c1=O` [BW-3911], the “fold selectivity for A3 compared to human A2B” value is 70 fold.
